Reference: ChEMBL document CHEMBL5325405, “Rationally designed donepezil-based hydroxamates modulate Sig-1R and HDAC isoforms to exert anti-glioblastoma effects” (Eur J Med Chem, 2023)
pIC50: −log10 of the molar value. The source made the active and inactive calls. No cut-off for these calls is given here.

How the values were obtained:
[1] = system: U-87 MG; assay: cells; assay type: functional, cell-based, U-87MG ATCC; settings: Homo sapiens
[2] = system: U-87 MG; assay: Cytotoxicity against human U-87 MG cells assessed as reduction in cell growth at 10 uM measured after 3 days by MTT assay; assay type: functional, U-87MG ATCC; parameters: scale not given: the % may be the effect or the level left; settings: time 3 day
[3] = target: T1, Histone deacetylase 8 (Homo sapiens, UniProt Q9BY41); assay: Inhibition of human HDAC8
T1 sequence (Q9BY41 whole entry): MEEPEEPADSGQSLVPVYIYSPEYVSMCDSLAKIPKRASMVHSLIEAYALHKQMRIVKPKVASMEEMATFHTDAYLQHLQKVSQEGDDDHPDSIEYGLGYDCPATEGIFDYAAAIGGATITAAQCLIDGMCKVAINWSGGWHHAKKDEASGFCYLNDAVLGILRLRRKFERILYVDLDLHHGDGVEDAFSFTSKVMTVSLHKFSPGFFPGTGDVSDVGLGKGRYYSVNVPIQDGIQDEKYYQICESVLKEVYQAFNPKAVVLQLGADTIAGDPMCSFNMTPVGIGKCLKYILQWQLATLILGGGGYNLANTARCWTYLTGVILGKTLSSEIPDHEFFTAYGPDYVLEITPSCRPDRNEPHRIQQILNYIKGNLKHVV

[4] = target: Histone deacetylase 1 (Homo sapiens, UniProt Q13547); assay: Inhibition of human HDAC1
Chain of Histone deacetylase 1 (Q13547 whole entry): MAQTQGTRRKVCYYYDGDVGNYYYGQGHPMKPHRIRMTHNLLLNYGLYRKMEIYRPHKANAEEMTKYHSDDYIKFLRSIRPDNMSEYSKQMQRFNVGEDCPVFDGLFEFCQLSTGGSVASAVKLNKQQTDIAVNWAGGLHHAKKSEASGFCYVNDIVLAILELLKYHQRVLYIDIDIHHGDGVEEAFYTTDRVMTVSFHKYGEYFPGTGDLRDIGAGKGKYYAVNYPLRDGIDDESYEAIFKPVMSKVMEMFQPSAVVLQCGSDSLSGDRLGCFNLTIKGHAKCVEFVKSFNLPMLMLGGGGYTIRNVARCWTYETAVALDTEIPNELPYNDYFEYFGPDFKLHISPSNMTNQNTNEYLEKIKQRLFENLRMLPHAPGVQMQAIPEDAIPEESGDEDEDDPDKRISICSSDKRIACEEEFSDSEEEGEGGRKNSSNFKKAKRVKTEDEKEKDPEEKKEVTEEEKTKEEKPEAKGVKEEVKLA

[5] = target: T2, Protein deacetylase HDAC6 (Homo sapiens, UniProt Q9UBN7); assay: Inhibition of human HDAC6
T2 sequence (Q9UBN7 whole entry): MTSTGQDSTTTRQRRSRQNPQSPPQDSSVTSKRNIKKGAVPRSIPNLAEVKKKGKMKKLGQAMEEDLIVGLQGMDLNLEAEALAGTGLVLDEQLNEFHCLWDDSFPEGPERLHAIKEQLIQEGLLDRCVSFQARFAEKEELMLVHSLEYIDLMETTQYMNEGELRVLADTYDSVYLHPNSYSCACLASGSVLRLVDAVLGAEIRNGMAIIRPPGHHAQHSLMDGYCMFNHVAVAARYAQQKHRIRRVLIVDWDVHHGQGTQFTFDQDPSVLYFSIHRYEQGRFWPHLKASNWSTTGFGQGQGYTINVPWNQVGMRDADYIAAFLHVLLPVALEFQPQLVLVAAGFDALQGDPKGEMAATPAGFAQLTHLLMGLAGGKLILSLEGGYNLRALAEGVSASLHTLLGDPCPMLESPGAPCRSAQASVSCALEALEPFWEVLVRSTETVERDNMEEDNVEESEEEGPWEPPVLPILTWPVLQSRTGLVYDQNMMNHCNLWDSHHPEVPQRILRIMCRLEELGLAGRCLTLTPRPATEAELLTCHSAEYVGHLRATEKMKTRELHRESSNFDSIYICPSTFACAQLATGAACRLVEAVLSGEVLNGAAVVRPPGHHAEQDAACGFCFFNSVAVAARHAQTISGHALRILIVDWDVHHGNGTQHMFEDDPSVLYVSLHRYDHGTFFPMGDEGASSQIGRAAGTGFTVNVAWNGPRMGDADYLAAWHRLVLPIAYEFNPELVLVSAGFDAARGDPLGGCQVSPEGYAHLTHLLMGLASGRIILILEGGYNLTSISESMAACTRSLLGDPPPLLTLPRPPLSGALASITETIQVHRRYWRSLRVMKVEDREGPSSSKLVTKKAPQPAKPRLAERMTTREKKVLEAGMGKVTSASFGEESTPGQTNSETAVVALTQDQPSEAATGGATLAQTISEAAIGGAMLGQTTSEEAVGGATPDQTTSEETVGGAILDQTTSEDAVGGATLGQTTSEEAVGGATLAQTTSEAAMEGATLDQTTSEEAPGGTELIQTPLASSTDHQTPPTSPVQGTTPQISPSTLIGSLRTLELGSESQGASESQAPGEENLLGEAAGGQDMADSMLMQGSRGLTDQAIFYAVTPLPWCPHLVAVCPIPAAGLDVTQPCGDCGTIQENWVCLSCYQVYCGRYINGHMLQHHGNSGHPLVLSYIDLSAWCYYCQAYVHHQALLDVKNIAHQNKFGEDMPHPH

[6] = system: GBM; assay: Antitumor activity against Temozolomide-resistant patient derived GBM cells assessed as reduction in cell growth measured after 3 uM measured after 3 days by MTT assay; assay type: functional, cell-based; settings: Homo sapiens, time 3.0 day
[7] = target: Histone deacetylase 2 (Homo sapiens, UniProt Q92769); assay: Inhibition of human HDAC2
Chain of Histone deacetylase 2 (Q92769 whole entry): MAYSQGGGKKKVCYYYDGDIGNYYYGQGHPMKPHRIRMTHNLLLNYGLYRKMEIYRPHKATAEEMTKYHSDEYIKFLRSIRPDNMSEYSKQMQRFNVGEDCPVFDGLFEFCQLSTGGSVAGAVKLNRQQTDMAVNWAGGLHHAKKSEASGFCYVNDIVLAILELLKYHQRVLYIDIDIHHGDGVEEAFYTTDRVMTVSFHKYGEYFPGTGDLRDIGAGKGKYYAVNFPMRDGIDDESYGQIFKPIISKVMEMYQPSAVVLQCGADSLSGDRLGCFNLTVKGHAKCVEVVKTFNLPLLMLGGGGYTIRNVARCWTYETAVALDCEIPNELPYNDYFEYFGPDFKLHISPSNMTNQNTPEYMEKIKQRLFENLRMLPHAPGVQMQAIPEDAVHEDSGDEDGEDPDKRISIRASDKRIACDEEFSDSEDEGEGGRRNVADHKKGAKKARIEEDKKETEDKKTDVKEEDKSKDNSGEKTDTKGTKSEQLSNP

[8] = system: Astrocyte; assay: Cytotoxicity against primary astrocyte cells (unknown origin) assessed as reduction in cell growth at 3 uM measured after 3 days by MTT assay; assay type: toxicity, cell-based; settings: 72 h, time 3 day
[9] = system: A 172; assay: Induction of cell cycle arrest in human A-172 cells assessed as decrease in accumulation of cells at S phase at 10 uM measured after 24 hrs by propidium iodide staining based flow cytometry analysis; assay type: functional
[10] = system: A 172; assay: Induction of cell cycle arrest in human A-172 cells assessed as accumulation of cells at subG1 phase at 10 uM measured after 48 hrs by propidium iodide staining based flow cytometry analysis; assay type: functional
[11] = system: A 172; assay: Induction of cell cycle arrest in human A-172 cells assessed as decrease in accumulation of cells at G0/G1 phase at 10 uM measured after 24 hrs by propidium iodide staining based flow cytometry analysis; assay type: functional
[12] = system: A 172; assay: Induction of cell cycle arrest in human A-172 cells assessed as increase in accumulation of cells at G2/M phase at 10 uM measured after 24 hrs by propidium iodide staining based flow cytometry analysis; assay type: functional
[13] = system: Glioblastoma stem cell; assay: Antiproliferative activity against Temozolomide-resistant patient derived pt 3 Glioblastoma stem cell sphere assessed as reduction in cell viability at 10 uM measure after 3 days by MTT assay; assay type: functional, cell-based; settings: Homo sapiens, time 3.0 day
[14] = system: A 172; assay: […] caspase-3 expression in human A-172 cells at 1 to 10 uM measured after 16 hrs by Western blotting analysis; assay type: functional, cell-based; settings: dose 1-10 µM
[15] = system: A 172; assay: Upregulation of acetylated H3 k9/k14 expression in human A-172 cells at 1 to 10 uM measured after 8 to 24 hrs by Western blotting analysis; assay type: functional, cell-based; settings: dose 1-10 µM, time 8-24 hrs
[16] = system: A 172; assay: Upregulation of acetylated Sig-1R expression in human A-172 cells by immunoblotting analysis; assay type: functional, cell-based
[17] = system: Glioblastoma stem cell; assay: Antiproliferative activity against Temozolomide-resistant patient derived pt 3 Glioblastoma stem cell sphere assessed as reduction in cell viability at 30 uM measure after 3 days by MTT assay; assay type: functional, cell-based; settings: Homo sapiens, time 3.0 day
[18] = system: A 172; assay: Upregulation of acetylated tubulin expression in human A-172 cells at 1 to 10 uM measured after 8 to 24 hrs by Western blotting analysis; assay type: functional, cell-based; settings: dose 1-10 µM, time 8-24 hrs
[19] = system: Glioblastoma stem cell; assay: Antiproliferative activity against Temozolomide-resistant patient derived pt 5 Glioblastoma stem cell sphere assessed as reduction in cell viability at 10 uM measure after 3 days by MTT assay; assay type: functional, cell-based; settings: Homo sapiens, time 3.0 day
[20] = system: Glioblastoma stem cell; assay: Antiproliferative activity against Temozolomide-resistant patient derived pt 5 Glioblastoma stem cell sphere assessed as reduction in cell viability at 30 uM measure after 3 days by MTT assay; assay type: functional, cell-based; settings: Homo sapiens, time 3.0 day
[21] = system: U-87 MG; assay: Antitumor activity against Temozolomide-resistant human U-87 MG cells xenografted in orthotopic BALB/c mouse assessed as prolongation of animal survival at 10 mg/kg, ip qod; assay type: functional, organism-based; settings: U-87MG ATCC
[22] = system: A 172; assay: Downregulation of Spl expression in human A-172 cells at 1 to 10 uM measured after 16 hrs by Western blotting analysis; assay type: functional, cell-based; settings: dose 1-10 µM
[23] = system: GBM; assay: Inhibition of colony formation in Temozolomide-resistant patient derived pt 5 GBM cells at 10 uM measured after 3 days by crystal violet staining based analysis; assay type: functional, cell-based; settings: Homo sapiens, time 3.0 day
[24] = system: GBM; assay: Inhibition of colony formation in Temozolomide-resistant patient derived pt 3 GBM cells at 10 uM measured after 3 days by crystal violet staining based analysis; assay type: functional, cell-based; settings: Homo sapiens, time 3.0 day
[25] = system: A 172; assay: Downregulation of PCNA expression in human A-172 cells at 1 to 10 uM measured after 16 hrs by Western blotting analysis; assay type: functional, cell-based; settings: dose 1-10 µM
[26] = system: GBM; assay: Inhibition of colony formation in Temozolomide-resistant patient derived pt 5 GBM cells at 3 to 30 uM measured after 3 days by crystal violet staining based analysis; assay type: functional, cell-based; settings: Homo sapiens, dose 3-30 µM, time 3.0 day
[27] = system: U-87 MG; assay: Cytotoxicity against human U-87 MG cells assessed as reduction in cell growth at 30 uM measured after 3 days by MTT assay; assay type: functional, U-87MG ATCC; parameters: scale not given: the % may be the effect or the level left; settings: time 3 day
[28] = system: GBM; assay: Inhibition of colony formation in Temozolomide-resistant patient derived pt 3 GBM cells at 3 to 30 uM measured after 3 days by crystal violet staining based analysis; assay type: functional, cell-based; settings: Homo sapiens, dose 3-30 µM, time 3.0 day

| Compound | pIC50 [1] | pIC50 [3] | pIC50 [5] | pIC50 [4] | pIC50 [7] | Activity [2] [%] | Activity [6] | Activity [8] | other results |
| --- | --- | --- | --- | --- | --- | --- | --- | --- | --- |
| COc1cc2c(cc1OC)C(=O)C(CC1CCN(C(=O)CCCCCCCCC(=O)NO)CC1)C2 (stereo not given) | 4.54 |  |  |  |  |  |  |  |  |
| COc1cc2c(cc1OC)C(=O)C(CC1CCN(C(=O)CCCCCCCC(=O)NO)CC1)C2 (stereo not given) | 4.37 |  |  |  |  |  |  |  |  |
| COc1cc2c(cc1OC)C(=O)C(CC1CCN(Cc3ccccc3)CC1)C2 (stereo not given) [DONEPEZIL] | 4.33 |  |  |  |  |  | inactive |  | inhibition [26]: inactive; Activity [16]: inactive; Activity [17]: Active; Activity [27]: 50%; inhibition [28]: inactive; Activity [20]: Active |
| COc1cc2c(cc1OC)C(=O)C(CC1CCN(Cc3ccc(/C=C/C(=O)NO)cc3)CC1)C2 (stereo not given) | 5.75 | 6.95 | 6.62 | 5.61 | 6.30 | 90 | Active | Toxic |  |
| O=C(CCCCCCC(=O)Nc1ccccc1)NO [VORINOSTAT] |  |  |  |  |  |  | Active | Toxic | Activity [16]: inactive |
| COc1cc2c(cc1OC)C(=O)C(CC1CCN(C(=O)CCCCCC(=O)NO)CC1)C2 (stereo not given) | 4.37 |  |  |  |  |  |  |  |  |

More lines, in order of rising pIC50 [1], values ahead:

| pIC50 [1] | pIC50 [3] | pIC50 [5] | pIC50 [4] | pIC50 [7] | Compound | Activity [2] [%] | Activity [6] | Activity [8] | other results |
| --- | --- | --- | --- | --- | --- | --- | --- | --- | --- |
| 4.34 |  |  |  |  | COc1cc2c(cc1OC)C(=O)C(CC1CCN(Cc3ccc(C(=O)NO)cc3)CC1)C2 (stereo not given) |  |  |  |  |
| 4.77 |  |  |  |  | COc1cc2c(cc1OC)C(=O)C(CC1CCN(S(=O)(=O)c3ccc(/C=C/C(=O)NO)cc3)CC1)C2 (stereo not given) |  |  |  |  |
| 5.10 |  |  |  |  | COc1cc2c(cc1OC)C(=O)C(CC1CCN(C(=O)CCCCCCC(=O)NO)CC1)C2 (stereo not given) |  |  |  |  |
| 5.20 | 5.76 | 6.96 | 5.78 | 5.47 | COc1cc2c(cc1OC)C(=O)C(CC1CCN(S(=O)(=O)c3cccc(/C=C/C(=O)NO)c3)CC1)C2 (stereo not given) |  |  |  |  |
| 5.21 | 5.67 | 7.30 |  |  | COc1cc2c(cc1OC)C(=O)C(CC1CCN(Cc3ccc(NCc4ccc(C(=O)NO)cc4)cc3)CC1)C2 (stereo not given) | 90 | Active | Non-Toxic | inhibition [4]: inactive; inhibition [7]: inactive |
| 5.24 | 6.07 | 8.57 | 6.50 | 6.15 | COc1cc2c(cc1OC)C(=O)C(CC1CCN(Cc3ccc(NC(=O)CCCCCCC(=O)NO)cc3)CC1)C2 (stereo not given) | 90 | Active | Non-Toxic | Activity [9]: Active; Activity [13]: Active; Activity [14]: Active; Activity [15]: Active; Activity [16]: Active; Activity [17]: Active; Activity [10]: Active; Activity [18]: Active; Activity [19]: Active; Activity [11]: Active; Activity [20]: Active; Activity [21]: Active; Activity [22]: Active; inhibition [23]: Active; Activity [12]: Active; inhibition [24]: Active; Activity [25]: Active |
| 5.31 | 5.91 | 7.29 | 6.21 | 5.85 | COc1cc2c(cc1OC)C(=O)C(CC1CCN(Cc3cccc(NC(=O)CCCCCCC(=O)NO)c3)CC1)C2 (stereo not given) | 90 | Active | Non-Toxic | Activity [9]: Active; Activity [10]: Active; Activity [11]: Active; Activity [12]: Active |
